Assays:
Experiment in all cases: Test of plant growth inhibiting action on sprouted seeds grown 7 days in a dispersion of wettable powder, visual evaluation
Assay type in all cases: in vivo
Raphanus sativus = conditions: 168 h, 20% wettable powder dispersed in water, 25°C, lighted thermostat, visual grade 1-5, read-out: Growth Inhibition, Seed of Plant Raphanus sativus (converted); for inhibition at 20 ppm: Concentration 20 ppm; for inhibition at 100 ppm: Concentration 100 ppm
From the text: (§1) Test Example (Test of Plant Growth Inhibiting Action)
(§2) 50 parts of talc, 25 parts of bentonite, 2 parts of Sorpol-9047 (surface active agent manufactured by Toho Chemical Co., Ltd.) and 3 parts of Sorpol-5039 (same as above) were thoroughly mixed to form a carrier. 50 weight parts of test compound was mixed with 200 weight parts of the carrier to prepare a 20% wettable powder. The wettable powder was dispersed in pure water to adjust the amount thereof to a definite concentration (see Table If to 17). Seeds of Oryza sativa or rice plant, Echinochloa crus-galli (a kind of millet) and Raphanus sativus (a kind of radish) all of which were forcedly sprouted in a separate dish, were put in the dispersion of wettable powder and grown for 7 days in a lighted thermostat at 25°C and the degree of growth was visually evaluated in accordance with the standard set forth below.
(§3) Standard of Evaluation in Growth Inhibition
(§4) • no influence: 1 • about 25% growth inhibition: 2 • about 50% growth inhibition: 3 • about 75% growth inhibition: 4 • about 100% growth inhibition: 5

Oryza sativa = conditions: 168 h, 20% wettable powder dispersed in water, 25°C, lighted thermostat, visual grade 1-5, read-out: Growth Inhibition, Seed of Plant Oryza sativa (converted); for inhibition at 20 ppm: Concentration 20 ppm; for inhibition at 100 ppm: Concentration 100 ppm
From the text: as §1, §2, §3, §4

Echinochloa crus-galli = conditions: 168 h, 20% wettable powder dispersed in water, 25°C, lighted thermostat, visual grade 1-5, read-out: Growth Inhibition, Seed of Plant Echinochloa crus-galli (converted); for inhibition at 20 ppm: Concentration 20 ppm; for inhibition at 100 ppm: Concentration 100 ppm
From the text: as §1, §2, §3, §4

Compound | inhibition at 20 ppm (Raphanus sativus) | inhibition at 100 ppm (Raphanus sativus) | inhibition at 20 ppm (Oryza sativa) | inhibition at 100 ppm (Oryza sativa) | inhibition at 20 ppm (Echinochloa crus-galli) | inhibition at 100 ppm (Echinochloa crus-galli)
C=C(CSCc1ccccc1)C(=O)OC [Compound 4-6] | 0% | 25% | 100% | 100% | 100% | 100%
C=C(COc1ccc(C(F)(F)F)cc1)C(=O)OC [Compound 4-21] | 25% | 25% | 0% | 100% | 0% | 100%
C=C(COc1ccccc1)C(=O)OC [Compound 4-10, methyl 2-methylene-3-phenoxypropionate] | 0% | 100% | 75% | 100% | 100% | 100%
C=C(CSc1ccc(C)cc1)C(=O)OC [Compound 4-3] | 0% | 0% | 75% | 100% | 100% | 100%
C=C(COc1cccc2c1CCCC2)C(=O)OC [Compound 4-17] | 0% | 0% | 75% | 100% | 100% | 100%
C=C(CSCc1ccc(Cl)cc1)C(=O)OC [Compound 4-9] | 0% | 50% | 100% | 100% | 100% | 100%
C=C(COc1ccc(-c2ccccc2)cc1)C(=O)OC [Compound 4-13] | 0% | 0% | 0% | 0% | 25% | 25%
C=C(COc1ccc(F)cc1)C(=O)OC [Compound 4-15, methyl 2-methylene-3-(4-fluorophenoxy)propionate] | 0% | 50% | 50% | 100% | 75% | 100%
C=C(COc1ccc(C#N)cc1)C(=O)OC [Compound 4-22] | 50% | 100% | 100% | 100% | 100% | 100%
C=C(COc1cccc(Cl)c1)C(=O)OC [Compound 4-14] | 25% | 75% | 100% | 100% | 100% | 100%
C=C(COc1ccc(Cl)cc1C)C(=O)OC [Compound 4-11] | 0% | 25% | 75% | 100% | 100% | 100%
C=C(CSc1ccccn1)C(=O)OC [Compound 4-8] | 0% | 0% | 0% | 50% | 0% | 25%
C=C(CSc1ccc2ccccc2c1)C(=O)OC [Compound 4-5] | 0% | 0% | 75% | 100% | 100% | 100%
C=C(COc1ccc(Cl)cc1Cl)C(=O)OC [Compound 4-12] | 0% | 0% | 75% | 100% | 100% | 100%
C=C(CSc1ccc(OC)cc1)C(=O)OC [Compound 4-4] | 0% | 25% | 100% | 100% | 100% | 100%
C=C(COc1cccc2ncccc12)C(=O)OC [Compound 4-27] | 0% | 50% | 75% | 100% | 100% | 100%
C=C(COc1ccc(OC)cc1)C(=O)OC [Compound 4-20] | 0% | 0% | 100% | 100% | 100% | 100%
C=C(COc1ccc2c(C)cc(=O)oc2c1)C(=O)OC [Compound 4-25] | 0% | 25% | 25% | 100% | 75% | 100%
C=C(COc1cccc(C)c1)C(=O)OC [Compound 4-16] | 0% | 25% | 75% | 100% | 100% | 100%
C=C(CSC1CCCCC1)C(=O)OC [Compound 4-7] | 0% | 0% | 0% | 100% | 75% | 100%
C=C(CSc1ccccc1)C(=O)OC [Compound 4-1, methyl 2-methylene-3-(phenylthio)propionate] | 0% | 25% | 100% | 100% | 100% | 100%
C=C(COc1ccc(C=Cc2ccccc2)cc1)C(=O)OC [Compound 4-28] | 0% | 0% | 25% | 25% | 75% | 75%
C=C(CSc1ccc(Cl)cc1)C(=O)OC [Compound 4-2, methyl 2-methylene-3-(4-chlorophenyl-thio)propionate] | 0% | 25% | 100% | 100% | 100% | 100%
C=C(COc1ccc(SC)cc1)C(=O)OC [Compound 4-19] | 0% | 50% | 100% | 100% | 100% | 100%
C=C(COc1ccc(C)cc1)C(=O)OC [Compound 4-18] | 25% | 100% | 75% | 100% | 100% | 100%
C=C(CON(CC)CC)C(=O)OC [Compound 4-26] | 0% | 0% | 0% | 50% | 0% | 25%

— EP0117412A1, “Propene derivatives and their use as plant growth inhibitors” (DAICEL CHEMICAL INDUSTRIES, LTD., priority 1983, dated 1984)
